Marks after values point to notes of the source that are not given here.
Columns and labels:
[1] = system: Coxsackie virus A16 (CoxA16); assay: Impact of the drugs on the virus-induced cytopathy (MTT); type: cell-based; settings: CoxA16 100 TCID50, Vero cells, about the maximal non-cytotoxic concentration, 72 hours
[2] = system: Adenovirus (AdV); assay: as above; type: cell-based; settings: ADV 100 TCID50, Vero cells, about the maximal non-cytotoxic concentration, 72 hours
[3] = system: coxsackie virus B3 (CVB3); assay: as above; type: cell-based; settings: CVB3 100 TCID50, Vero cells, about the maximal non-cytotoxic concentration, 72 hours
[4] = system: sweat gland epithelial cells at the rat toe part; assay: Sweat secretion of rat paw part (tissue morphology observation method); type: in vivo, Wistar rats; settings: rat toe part; 300.0 mg/kg intragastric
Description: This test was based on the mechanism that when rat sweat gland is excited, in addition to sweat secretion increase, the morphology of sweat gland epithelial cell is also changed. The number increase and expansion of empty cells of the sweat gland epithelial cells can be seen under the optical microscope. Such enlarged vacuole presents mitochondrial in sweat gland epithelial cells swelling, rupture, fusion and secretory vesicle enlargement under the electron microscope, and through the morphological observation of the sweat gland epithelial cell at the rat paw part, the secretory activity of the sweat gland can be known. In the test, 70 Wistar rats were selected, with equal male and female number, weighing 120-160 g. […] Besides that subcutaneous injection was used for the pilocarpine solution, intragastric administration was used for all the other groups.

[5] = system: rabbit fever induced by typhoid and paratyphoid vaccine; assay: Rabbit fever induced by typhoid and paratyphoid vaccine; type: in vivo, Japanese white rabbits; settings: 300 mg/kg
Protocol: Japanese male big-ear white rabbits, weighing 1.5-2.0 kg. Before the test, WSC-411P portable digital thermometer was used to measure the normal rectal temperature twice (with certain interval for each time), and the average value was taken as the normal body temperature. Then 48 Japanese big-ear white rabbits with body temperature of 38-39.6° C. were selected and randomly divided into 8 groups by weight, namely: the blank control (normal saline) group, the model control (0.5% carboxymethylcellulose) group, the ibuprofen group (300 mg/kg), the phillygenin group (10 mg/kg), the 1.25, 2.5, and 5 mg/kg phillygenin ibuprofen ester groups and the positive drug paracetamol (50 mg/kg) group. The rabbits were fixed in a fixator. The blank control group was intravenously injected with normal saline of 1 ml/kg via the ear margin; The model control group and the drug groups were intravenously injected with typhoid and paratyphoid vaccines of 0.8 ml/kg via the ear margin. When the body temperature rise of the rabbits was greater than 1° C. (requiring about 1-1.5 h, which was restricted to 1 h in this test), the blank control group and the model group were administered intragastrically with 0.5% carboxymethycellulose of 1 ml/kg, and the drug groups were administered intragastrically with phillygenin ibuprofen ester and paracetamol. […]

[6] = system: rat toe swelling induced by carrageenan; assay: Rat toe swelling induced by carrageenan; type: in vivo, Wistar rats; settings: 300 mg/kg sublingual intravenous injection
Protocol: The test groups were administered by sublingual intravenous injection. Before the test, capillary magnification measurement method was used to measure the normal volume of the right hind foot of the rats in each group. To avoid errors, the measurement location was fixed and the operation was made by one person both before and after the administration. The average value of the two measurements was taken as the normal volume of the right hind foot of the rats before administration. […] The difference between the groups was compared by inter-group t test processing through the difference percentage (swelling ratio) of the paw volume before and after the induced rat inflammation.

[7] = time after administration (min) 30
[8] = time after administration (min) 60
[9] = time after administration (min) 90
[10] = time after administration (min) 120
[11] = time after administration (min) 180

CC(C)Cc1ccc(C(C)C(=O)O)cc1 (stereo not shown) [Ibuprofen]
antiviral effective rate (ER %) [1]: 50.04% | antiviral effective rate (ER %) [2]: 50.61% | antiviral effective rate (ER %) [3]: 50.89% | Number of sweat glands of vacuole [4]: 57 | Void fraction (%) [4]: 27.40*** % | Body temperature (° C.) [5, 7]: 40.74 ± 0.52 °C | antipyretic percentage (%) [5, 7]: −0.90 ± 0.41 % | Body temperature (° C.) [5, 8]: 40.56 ± 0.40 °C | antipyretic percentage (%) [5, 8]: −1.35 ± 0.11 % | Body temperature (° C.) [5, 9]: 40.07 ± 0.44 °C | antipyretic percentage (%) [5, 9]: −2.52 ± 0.13 % | Body temperature (° C.) [5, 10]: 39.88 ± 0.55 °C | antipyretic percentage (%) [5, 10]: −3.00 ± 0.23 % | Body temperature (° C.) [5, 11]: 39.77 ± 0.53 °C | antipyretic percentage (%) [5, 11]: −3.25 ± 0.29 % | Swelling ratio (%) ([6]; 30 min): 0.110 ± 0.119 % | Swelling ratio (%) ([6]; 60 min): 0.151 ± 0.172 % | Swelling ratio (%) ([6]; 120 min): 0.210 ± 0.178 % | Swelling ratio (%) ([6]; 180 min): 0.330 ± 0.337 % | Swelling ratio (%) ([6]; 240 min): 0.4600 ± 0.289 % | Swelling ratio (%) ([6]; 300 min): 0.681 ± 0.369% | Swelling ratio (%) ([6]; 360 min): 0.623 ± 0.338 %

Source: patent US9963461B2, “Phillygenin ibuprofen ester, preparation method therefor, and application thereof” (priority 2014, dated 2018)
